≈ marks a conversion by molar mass, not a printed value. Where two headings read alike, the source gives them in different places.
What was measured:
full-length human HDAC11 [1] = biological target: T1, full-length human HDAC11 (Homo sapiens (Human), UniProt Q96DB2); test: Probe binding HDAC11 time resolved fluorescence (TRF) assay; conditions: Table 2, read-out: HDAC11 IC50 Range
Experimental: The probe binding HDAC11 assay was performed using a time resolved fluorescence (TRF) assay format. Recombinant N-terminal GST tag full-length human HD AC 11 was expressed and purified from baculovirus in Sf9 insect cells (SignalChem, #H93-30G-1000). […] 4 μL of 2× probe and 2× anti-GST Terbium (Cisbio, #61GSTXLB) was added to assay plates followed by 4 μL of 2×HDAC11.
Data from HD AC 11 Assays were reported as percent inhibition (inh) compared with control wells based on the following equation: % inh=1−((FLU−AveLow)/(AveHigh−AveLow)) where FLU=measured time resolved fluorescence. AveLow=average time resolved fluorescence of no enzyme control (n=32). AveHigh=average time resolved fluorescence of DMSO control (n=32). IC50 values were determined by curve fitting of the standard 4 parameter logistic fitting algorithm included in the Activity Base software package: IDBS XE Designer Model205. Data is fitted using the Levenburg Marquardt algorithm.

[2] = In vitro intrinsic clearance after incubation with mouse liver microsomes; type: in vitro ADME; conditions: for microsomal stability, in words: comparison
HDAC11 = HDAC11 (Homo sapiens (Human), UniProt Q96DB2); test: Lipophilic efficiency (pIC50 HDAC11 - clogD7.4)
full-length human HDAC11 [3] = biological target: T1, full-length human HDAC11; test: HDAC11 deacetylase electrophoretic mobility shift assay (Nanosyn); type: biochemical; conditions: for HDAC11 potency, in words: comparison with parent or lead compound; for IC50: mobility shift assay
Experimental: The measurement of HD AC 11 deacetylase activity was performed using an electrophoretic mobility shift assay by Nanosyn (Santa Clara, Calif.). Full length human recombinant HD AC 11 protein was expressed in baculoviral system and purified by affinity chromatography. The enzymatic reactions were assembled in 384 well plates in a total volume of 25 μL in a reaction buffer composing: 100 mM HEPES, pH 7.5, 25 mM KCl, 0.1% bovine serum albumin, 0.01% Triton X-100, 1% DMSO (from compounds), 2 μM of the fluorescently labeled peptide substrate and enzyme. The enzyme was added at a final concentration of 10 nM. The peptide substrate FAM-RHKK(tri-fluor-Ac)—NH2 was used. The compounds were tested at 12 concentrations spaced by 3× dilution intervals. Negative control samples (0%-inhibition in the absence of inhibitor) and positive control samples (100%-inhibition) were assembled in replicates of four in each assay plate. The reactions were incubated at 25° C. and quenched by the addition of 45 μL of termination buffer (100 mM HEPES, pH 7.5, 0.01% Triton X-100, 0.05% SDS).
The terminated assay plates were analyzed on LabChip® 3000 microfluidic electrophoresis instrument (Perkin Elmer/Caliper Life Sciences). The fluorescence intensity of the electrophoretically separated de-acetylated product and substrate peptide was measured. Activity in each sample was determined as the product to sum ratio (PSR): P/(S+P), where P is the peak height of the product peptide and S is the peak height of the substrate peptide. Percent inhibition (Pinh) is determined using the following equation: Pinh=(PSR0%−PSRinh)/(PSR0%−PSR100%)*100, where PSRinh, is the product sum ratio in the presence of inhibitor, PSR0% is the average product sum ration in the absence of inhibitor and PSR100% is the average product sum ratio in 100%-inhibition control samples. The IC50 values of inhibitors were determined by fitting the percent inhibition curves with 4 parameter dose-response model using XLfit 4 software.

HDAC6 = HDAC6 (Homo sapiens (Human), UniProt Q9UBN7); test: HDAC6 electrophoretic mobility shift assay; type: biochemical; conditions: for IC50: mobility shift assay
[4] = Kinetic solubility at pH 7.4; type: physicochemical; conditions: aqueous buffer, kinetic from dmso stock
[5] = biological target: HDAC11 fused to Nanoluc luciferase (Homo sapiens (Human), UniProt Q96DB2); test: BRET target engagement cell assay
[6] = pIC50 HDAC11 - clogD7.4, Table 5
[7] = pIC50 HDAC11 - clogD7.4, Table 6
[8] = read-out: HDAC11 BRET IC50, BRET cell assay, Table 6
[9] = pIC50 HDAC11 - clogD7.4, Table 4
[10] = Table 3, mean of at least two runs, read-out: HDAC 6 IC50
[11] = Table 3, mean of at least two runs, read-out: HDAC 11 IC50

Chain of HDAC11 (Q96DB2 whole entry): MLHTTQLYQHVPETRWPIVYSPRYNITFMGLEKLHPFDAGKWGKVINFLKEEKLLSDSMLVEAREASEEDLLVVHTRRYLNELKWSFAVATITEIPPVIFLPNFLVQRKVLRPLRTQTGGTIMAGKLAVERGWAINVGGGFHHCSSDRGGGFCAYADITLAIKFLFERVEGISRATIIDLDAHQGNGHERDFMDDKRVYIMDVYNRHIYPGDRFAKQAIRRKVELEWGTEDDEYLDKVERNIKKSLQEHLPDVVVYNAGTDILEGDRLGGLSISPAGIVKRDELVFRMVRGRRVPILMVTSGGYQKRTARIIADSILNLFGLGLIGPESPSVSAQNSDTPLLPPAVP
T1 sequence (Q96DB2 whole entry): as above
Chain of HDAC11 fused to Nanoluc luciferase (Q96DB2 whole entry, the tested form may be a part): as the sequence (Q96DB2 whole entry) above
Chain of HDAC6 (Q9UBN7 whole entry, species assumed): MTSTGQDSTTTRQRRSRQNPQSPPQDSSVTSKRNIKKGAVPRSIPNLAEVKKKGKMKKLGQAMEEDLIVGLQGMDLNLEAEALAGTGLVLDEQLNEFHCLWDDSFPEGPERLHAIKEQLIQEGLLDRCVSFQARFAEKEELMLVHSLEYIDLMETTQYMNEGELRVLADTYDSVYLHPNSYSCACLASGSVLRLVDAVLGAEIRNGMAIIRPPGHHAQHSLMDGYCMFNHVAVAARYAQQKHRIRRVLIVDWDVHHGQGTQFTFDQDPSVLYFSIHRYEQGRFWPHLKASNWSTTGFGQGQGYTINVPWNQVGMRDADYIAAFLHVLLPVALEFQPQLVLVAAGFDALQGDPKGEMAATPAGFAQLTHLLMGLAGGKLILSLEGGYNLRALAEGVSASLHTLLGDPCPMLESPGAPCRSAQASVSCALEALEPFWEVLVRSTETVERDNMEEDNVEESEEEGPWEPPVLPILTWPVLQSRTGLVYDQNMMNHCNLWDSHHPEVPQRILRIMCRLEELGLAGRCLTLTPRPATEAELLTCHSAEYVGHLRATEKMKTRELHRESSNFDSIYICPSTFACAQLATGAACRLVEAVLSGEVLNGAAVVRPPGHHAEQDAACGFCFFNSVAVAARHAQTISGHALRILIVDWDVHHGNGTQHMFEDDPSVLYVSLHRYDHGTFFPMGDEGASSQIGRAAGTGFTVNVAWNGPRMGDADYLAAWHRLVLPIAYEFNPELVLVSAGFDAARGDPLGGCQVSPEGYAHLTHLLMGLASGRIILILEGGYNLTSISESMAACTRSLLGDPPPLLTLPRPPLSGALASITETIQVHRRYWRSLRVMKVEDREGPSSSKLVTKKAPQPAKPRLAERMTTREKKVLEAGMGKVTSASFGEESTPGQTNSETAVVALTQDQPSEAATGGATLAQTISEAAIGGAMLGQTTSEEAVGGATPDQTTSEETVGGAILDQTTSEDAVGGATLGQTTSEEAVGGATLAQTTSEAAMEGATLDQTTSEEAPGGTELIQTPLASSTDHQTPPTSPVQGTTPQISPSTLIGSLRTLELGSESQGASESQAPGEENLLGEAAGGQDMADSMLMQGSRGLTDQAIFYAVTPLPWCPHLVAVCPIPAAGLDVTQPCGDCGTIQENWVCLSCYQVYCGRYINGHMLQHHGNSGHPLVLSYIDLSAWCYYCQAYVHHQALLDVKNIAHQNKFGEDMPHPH

Compound | IC50 (full-length human HDAC11 [1]) [nM] | microsomal CLint ([2]; Table 5) [µL/min/mg] | microsomal stability, in words [2] | LipE (HDAC11; [6]) | HDAC11 potency, in words (full-length human HDAC11 [3]) | IC50 (full-length human HDAC11 [3]; Table 5, read-out: HDAC11 IC50) [nM] | microsomal CLint ([2]; Table 6) [µL/min/mg] | LipE (HDAC11; [7]) | solubility [4] [µM] | IC50 (full-length human HDAC11 [3]; Table 6, read-out: HDAC11 IC50) [nM] | other results
Cc1nc(N2Cc3cccc(C(=O)NO)c3C2)[nH]c1C.Cl [Compound 1-2, 2-(4,5-dimethyl-1H-imidazol-2-yl)-N-hydroxyisoindoline-4-carboxamide hydrochloride] | > 1000 | 51 to 100 | loss of potency and microsomal stability | ++ (indicates 5.5<LipE≤6.5) | loss of potency | > 1000 | – | – | – | – | –
Cl.O=C(NO)c1cccc2c1CN(c1nc3c([nH]1)CCCC3)C2 [Compound 1-4, N-hydroxy-2-(4,5,6,7-tetrahydro-1H-benzo[d]imidazol-2-yl)isoindoline-4-carboxamide hydrochloride] | > 1000 | > 100 | loss of potency and microsomal stability | ++ (indicates 5.5<LipE≤6.5) | loss of potency | > 1000 | – | – | – | – | –
O=C(NO)c1cccc2c1CN(c1nc3ccccc3[nH]1)C2 [Compound 1-6, 2-(1H-benzo[d]imidazol-2-yl)-N-hydroxyisoindoline-4-carboxamide] | – | – | significant microsomal stability | – | – | – | – | – | – | – | microsomal CLint ([2]; Table 4, read-out: m-CL-int): < 50 µL/min/mg; m-CLint ([2]; Table 5): +++ (indicates a m-CLint below 50 μL/min/mg); IC50 (HDAC6; Table 4, read-out: HDAC6 IC50): > 1000 nM
Cl.O=C(NO)c1cccc2c1CN(c1ccc3ccccc3n1)C2 [Compound 7-2, N-hydroxy-2-(quinolin-2-yl)isoindoline-4-carboxamide hydrochloride] | < 500 | 51 to 100 | significant loss of microsomal stability | + (indicates LipE≤5.5) | improved potency | < 500 | – | – | – | – | –
O=C(NO)c1cccc2c1CN(c1nc3ccccc3s1)C2 [Compound 7-4, 2-(benzo[d]thiazol-2-yl)-N-hydroxyisoindoline-4-carboxamide] | < 500 | > 100 | significant loss of microsomal stability | + (indicates LipE≤5.5) | improved potency | < 500 | – | – | – | – | –
O=C(NO)c1cccc2c1CN(c1nc3ccc(C(F)(F)F)cc3[nH]1)C2 [Compound 12-1, N-hydroxy-2-(6-(trifluoromethyl)-1H-benzo[d]imidazol-2-yl)isoindoline-4-carboxamide] | < 500 | > 100 | loss of microsomal stability | ++ (indicates 5.5<LipE≤6.5) | significant increase in both potency and LipE | < 500 | – | – | – | – | –
O=C(NO)c1cccc2c1CN(c1nc3ccccc3o1)C2 [Compound 15-1, 2-(benzo[d]oxazol-2-yl)-N-hydroxyisoindoline-4-carboxamide] | < 500 | > 100 | significant loss of microsomal stability | +++ (indicates a LipE>6.5) | improved potency | < 500 | – | – | – | – | –
CC1(C)c2cccc(C(=O)NO)c2CN1c1nc2ccc(C(F)(F)F)cc2[nH]1 [Compound 17-1, N-hydroxy-1,1-dimethyl-2-(6-(trifluoromethyl)-1H-benzo[d]imidazol-2-yl)isoindoline-4-carboxamide] | < 500 | – | significant increase in stability | – | retained the potency | – | < 50 | ++ (indicates 5.5<LipE≤6.5) | 30 to 55 (≈ 11.7 to 21.5 µg/mL) | < 500 | –
CC1(C)c2cccc(C(=O)NO)c2CN1c1nc2cc(C(F)(F)F)ccc2o1 [Compound 18-1, N-hydroxy-1,1-dimethyl-2-[5-(trifluoromethyl)-1,3-benzoxazol-2-yl]-2,3-dihydro-1H-isoindole-4-carboxamide] | < 500 | – | – | – | – | – | < 50 | ++ (indicates 5.5<LipE≤6.5) | ≤ 30 | < 500 | –
CC1(C)c2cccc(C(=O)NO)c2CN1c1nc2ncccc2o1 [Compound 18-2, N-hydroxy-1,1-dimethyl-2-(oxazolo[4,5-b]pyridin-2-yl)isoindoline-4-carboxamide] | < 500 | – | – | – | – | – | < 50 | +++ (indicates a LipE>6.5) | > 55 | < 500 | IC50 [5, 8]: < 500 nM
CC1(C)c2cccc(C(=O)NO)c2CN1c1ccc(C(F)(F)F)cn1 [Compound 22-2, N-hydroxy-1,1-dimethyl-2-(5-(trifluoromethyl)pyridin-2-yl)isoindoline-4-carboxamide] | < 500 | – | – | – | – | – | < 50 | ++ (indicates 5.5<LipE≤6.5) | ≤ 30 | < 500 | IC50 [5, 8]: < 500 nM
CC1(C)c2cccc(C(=O)NO)c2CN1c1ccc(C(F)(F)F)nc1 [Compound 22-3, N-hydroxy-1,1-dimethyl-2-(6-(trifluoromethyl)pyridin-3-yl)isoindoline-4-carboxamide] | < 500 | – | – | – | – | – | < 50 | ++ (indicates 5.5<LipE≤6.5) | 30 to 55 (≈ 10.5 to 19.3 µg/mL) | < 500 | IC50 [5]: < 20 nM; IC50 [5, 8]: < 500 nM
CC1(C)c2cccc(C(=O)NO)c2CN1c1ncc(C(F)(F)F)cn1 [Compound 22-6, N-hydroxy-1,1-dimethyl-2-(5-(trifluoromethyl)pyrimidin-2-yl)isoindoline-4-carboxamide] | < 500 | – | – | – | – | – | < 50 | ++ (indicates 5.5<LipE≤6.5) | 30 to 55 (≈ 10.6 to 19.4 µg/mL) | < 500 | IC50 [5, 8]: < 500 nM
O=C(NO)c1cccc2c1CN(c1ccc(C(F)(F)F)cn1)C2 [Compound 45-1, N-hydroxy-2-(5-(trifluoromethyl)pyridin-2-yl)isoindoline-4-carboxamide] | < 500 | 51 to 100 | significant loss of microsomal stability | ++ (indicates 5.5<LipE≤6.5) | improved potency | < 500 | – | – | – | – | –
O=C(NO)c1cccc2c1CCN(c1nc3ccccc3[nH]1)C2 [Compound 50-2] | – | – | – | – | only modest HDAC11 activity | – | – | – | – | – | microsomal CLint ([2]; Table 4, read-out: m-CL-int): < 50 µL/min/mg; LipE (HDAC11; [9]): + (indicates LipE≤5.5); IC50 (HDAC6; [10]): > 2000 nM; IC50 (HDAC6; Table 4, read-out: HDAC6 IC50): > 1000 nM; HDAC6 potency, in words (HDAC6; text comparison with lead 50-4): no significant HDAC6 potency; IC50 (full-length human HDAC11 [3]; [11]): 510 to 2000 nM; IC50 (full-length human HDAC11 [3]; Table 4, read-out: HDAC11 IC50): > 1000 nM
O=C(NO)c1cccc2c1CCN(c1nc3ccccc3[nH]1)CC2 [Compound 50-3] | – | – | – | – | – | – | – | – | – | – | microsomal CLint ([2]; Table 4, read-out: m-CL-int): > 100 µL/min/mg; LipE (HDAC11; [9]): + (indicates LipE≤5.5); IC50 (HDAC6; Table 4, read-out: HDAC6 IC50): > 1000 nM; IC50 (full-length human HDAC11 [3]; Table 4, read-out: HDAC11 IC50): < 500 nM; increase in potency against HDAC11 (full-length human HDAC11 [3]; relative to the tetrahydroisoquinoline core): > 10 fold
O=C(NO)c1ccc2c(c1)CN(c1nc3ccccc3[nH]1)CC2 [Compound 50-4] | – | – | – | – | – | – | – | – | – | – | IC50 (HDAC6; [10]): < 500 nM; IC50 (full-length human HDAC11 [3]; [11]): > 2000 nM
O=C(NO)c1ccc2c(c1)CCN(c1nc3ccccc3[nH]1)C2 [Compound 50-5] | – | – | – | – | loss of HD AC 11 potency | – | – | – | – | – | IC50 (HDAC6; [10]): < 500 nM; IC50 (full-length human HDAC11 [3]; [11]): > 2000 nM
O=C(NO)c1cccc2c1CN(c1nc3ccccc3[nH]1)CC2 [Compound 50-6] | – | – | – | – | – | – | – | – | – | – | IC50 (HDAC6; [10]): < 500 nM; loss in potency vs. HDAC6 (HDAC6; relative to initial lead 50-4): 20 fold; IC50 (full-length human HDAC11 [3]; [11]): > 2000 nM; loss in activity vs. HDAC11 (full-length human HDAC11 [3]; relative to initial lead 50-4): 2 fold
